Source: US20180110754A1, “CENICRIVIROC FOR THE TREATMENT OF FIBROSIS” (Tobira Therapeutics, Inc., priority 2015, published 2018)

Source text: Subjects with a history of HIV-2, hepatitis B and/or C, cirrhosis of the liver or any known active or chronic active liver disease were excluded from the study.
Most AEs were mild or moderate (Grade 1 or Grade 2). […] None of the Grade ≥3 AEs (preferred terms) were reported in more than 1 subject.

For `CCCCOCCOc1ccc(-c2ccc3c(c2)/C=C(/C(=O)Nc2ccc([S@@+]([O-])Cc4cncn4CCC)cc2)CCCN3CC(C)C)cc1` [CVC, (S)-8-[4-(2-Butoxyethoxy)phenyl]-1-isobutyl-N-(4-{[(1-propyl-1H-imidazol-5-yl)methyl]sulfinyl}phenyl)-1,2,3,4-tetrahydro-1-benzazocine-5-carboxamide], the “Grade 3 or 4 AE: Suicidal ideation, n subjects” value (CVC 200 mg (N = 57)) was 0, the “SAE: Suicidal ideation, n subjects” value (CVC 200 mg (N = 57), through Week 48) was 0 and the “Grade 3 or 4 AE: Blood creatine phosphokinase increased, n subjects” value (human, in vivo, 48 week) was 1. For the same compound, the “Grade 3 or 4 AE: Cardiac disorders, n subjects” value (human, in vivo, 48 week) was 1, the “Grade 3 or 4 AE: Depression, n subjects” value (human, in vivo, 48 week) was 0 and the “Grade 3 or 4 AE: Ear and labyrinth disorders, n subjects” value (human, in vivo, 48 week) was 0. The “Grade 3 or 4 AE: Investigations, n subjects” value (human, in vivo, 48 week) was 1, the “Grade 3 or 4 AE: Palpitations, n subjects” value (human, in vivo, 48 week) was 1 and the “Grade 3 or 4 AE: Psychiatric disorders, n subjects” value (human, in vivo, 48 week) was 1. The “Grade 3 or 4 AE: Stress, n subjects” value (human, in vivo, 48 week) was 1, the “Grade 3 or 4 AE: Weight decreased, n subjects” value (human, in vivo, 48 week) was 0 and the “AE Abnormal dreams, n subjects” value (human, in vivo, 48 weeks) was 9. The “AE Depression, n subjects” value (human, in vivo, 48 weeks) was 3, the “AE Diarrhoea, n subjects” value (human, in vivo, 48 weeks) was 17 and the “AE Dizziness, n subjects” value (human, in vivo, 48 weeks) was 11. The “AE Fatigue, n subjects” value (human, in vivo, 48 weeks) was 14, the “AE Headache, n subjects” value (human, in vivo, 48 weeks) was 16 and the “AE Insomnia, n subjects” value (human, in vivo, 48 weeks) was 7. The “AE Lymphadenopathy, n subjects” value (human, in vivo, 48 weeks) was 7, the “AE Nasopharyngitis, n subjects” value (human, in vivo, 48 weeks) was 10 and the “AE Nausea, n subjects” value (human, in vivo, 48 weeks) was 18. For the same compound, the “AE Rash, n subjects” value (human, in vivo, 48 weeks) was 14, the “AE Syphilis, n subjects” value (human, in vivo, 48 weeks) was 1 and the “AE Upper respiratory tract infection, n subjects” value (human, in vivo, 48 weeks) was 18. The “AE leading to discontinuation: Abnormal dreams, n subjects” value (human, in vivo, 48 weeks) was 0, the “AE leading to discontinuation: Aggression, n subjects” value (human, in vivo, 48 weeks) was 1 and the “AE leading to discontinuation: Anxiety, n subjects” value (human, in vivo, 48 weeks) was 0. For the same compound, the “AE leading to discontinuation: Depression, n subjects” value (human, in vivo, 48 weeks) was 1, the “AE leading to discontinuation: Dermatitis allergic, n subjects” value (human, in vivo, 48 weeks) was 0 and the “AE leading to discontinuation: Disturbance in attention, n subjects” value (human, in vivo, 48 weeks) was 0. For the same compound, the “AE leading to discontinuation: Dizziness, n subjects” value (human, in vivo, 48 weeks) was 0, the “AE leading to discontinuation: Ear and labyrinth disorders, n subjects” value (human, in vivo, 48 weeks) was 0 and the “AE leading to discontinuation: Eye disorders, n subjects” value (human, in vivo, 48 weeks) was 0. For the same compound, the “AE leading to discontinuation: Gastrointestinal disorders, n subjects” value (human, in vivo, 48 weeks) was 0, the “AE leading to discontinuation: General disorders and administration site conditions, n subjects” value (human, in vivo, 48 weeks) was 1 and the “AE leading to discontinuation: Hypoaesthesia, n subjects” value (human, in vivo, 48 weeks) was 0. For the same compound, the “AE leading to discontinuation: Insomnia, n subjects” value (human, in vivo, 48 weeks) was 0, the “AE leading to discontinuation: Malaise, n subjects” value (human, in vivo, 48 weeks) was 1 and the “AE leading to discontinuation: Musculoskeletal and connective tissue disorders, n subjects” value (human, in vivo, 48 weeks) was 0. For the same compound, the “AE leading to discontinuation: Musculoskeletal discomfort, n subjects” value (human, in vivo, 48 weeks) was 0, the “AE leading to discontinuation: Nausea, n subjects” value (human, in vivo, 48 weeks) was 0 and the “AE leading to discontinuation: Nervous system disorders, n subjects” value (human, in vivo, 48 weeks) was 0. For the same compound, the “AE leading to discontinuation: Photophobia, n subjects” value (human, in vivo, 48 weeks) was 0, the “AE leading to discontinuation: Psychiatric disorders, n subjects” value (human, in vivo, 48 weeks) was 1 and the “AE leading to discontinuation: Rash, n subjects” value (human, in vivo, 48 weeks) was 0. For the same compound, the “AE leading to discontinuation: Skin and subcutaneous tissue disorders, n subjects” value (human, in vivo, 48 weeks) was 0, the “AE leading to discontinuation: Tachyphrenia, n subjects” value (human, in vivo, 48 weeks) was 0 and the “AE leading to discontinuation: Thinking abnormal, n subjects” value (human, in vivo, 48 weeks) was 1. For the same compound, the “AE leading to discontinuation: Tinnitus, n subjects” value (human, in vivo, 48 weeks) was 0, the “Any AE leading to discontinuation of study drug, n subjects” value (human, in vivo, 48 weeks) was 1 and the “Any AE, n subjects” value (human, in vivo, 48 weeks) was 99. For the same compound, the “Any Grade 3 AE, n subjects” value (human, in vivo, 48 weeks) was 5, the “Any Grade 4 AE, n subjects” value (human, in vivo, 48 weeks) was 0 and the “Any SAE, n subjects” value (human, in vivo, 48 weeks) was 2. The “Grade 3 or 4 AE: Abdominal pain, n subjects” value (human, in vivo, 48 weeks) was 1, the “Grade 3 or 4 AE: Blindness unilateral, n subjects” value (human, in vivo, 48 weeks) was 1 and the “Grade 3 or 4 AE: Corneal infection, n subjects” value (human, in vivo, 48 weeks) was 1. For the same compound, the “Grade 3 or 4 AE: Dermatitis allergic, n subjects” value (human, in vivo, 48 weeks) was 0, the “Grade 3 or 4 AE: Eye disorders, n subjects” value (human, in vivo, 48 weeks) was 1 and the “Grade 3 or 4 AE: Gastrointestinal disorders, n subjects” value (human, in vivo, 48 weeks) was 1. For the same compound, the “Grade 3 or 4 AE: General disorders and administration site conditions, n subjects” value (human, in vivo, 48 weeks) was 1, the “Grade 3 or 4 AE: Infections and infestations, n subjects” value (human, in vivo, 48 weeks) was 1 and the “Grade 3 or 4 AE: Pyrexia, n subjects” value (human, in vivo, 48 weeks) was 1. For the same compound, the “Grade 3 or 4 AE: Skin and subcutaneous tissue disorders, n subjects” value (human, in vivo, 48 weeks) was 0, the “Grade 3 or 4 AE: Tinnitus, n subjects” value (human, in vivo, 48 weeks) was 0 and the “SAE: Blindness unilateral, n subjects” value (human, in vivo, 48 weeks) was 1. For the same compound, the “SAE: Corneal infection, n subjects” value (human, in vivo, 48 weeks) was 1, the “SAE: Depression, n subjects” value (human, in vivo, 48 weeks) was 0 and the “SAE: Eye disorders, n subjects” value (human, in vivo, 48 weeks) was 1. The “SAE: Gastroenteritis, n subjects” value (human, in vivo, 48 weeks) was 1, the “SAE: Infections and infestations, n subjects” value (human, in vivo, 48 weeks) was 2 and the “SAE: Psychiatric disorders, n subjects” value (human, in vivo, 48 weeks) was 0. The “Subjects who experienced a Grade ≥3 AE” value (human, in vivo, 48 weeks) was 4% and the “Subjects with AEs, worst grade severity Grade 4” value (human, in vivo, 48 weeks) was 0 n.
